Data as given in publication PMC12475274, “Harnessing indole scaffolds to identify small-molecule IRE1α inhibitors modulating XBP1 mRNA splicing” (Nature Communications, 2025).
“And” between values parts separate entries of the source, which are not always exact repeats. Equal entries are not always repeated. Where two headings read alike, the source gives them in different places.

Assays:
[1] = target: T1, dephosphorylated IRE1α (547–977) (Homo sapiens, UniProt O75460); experiment: FRET-based IRE1α RNase activity assay, dephosphorylated IRE1α; format: biochemical; settings: for inhibition at 50 µM: read-out: IRE1α inhibition%
T1 construct: Human IRE1α kinase and RNase domain (residues 547–977) was subcloned into pLIB plasmid; His tag (with TEV cleavage site) (N, cleaved yes); made in house; host or cells: Sf9 insect cells, baculovirus (Bac-to-Bac)
T1 sequence (O75460 547-977): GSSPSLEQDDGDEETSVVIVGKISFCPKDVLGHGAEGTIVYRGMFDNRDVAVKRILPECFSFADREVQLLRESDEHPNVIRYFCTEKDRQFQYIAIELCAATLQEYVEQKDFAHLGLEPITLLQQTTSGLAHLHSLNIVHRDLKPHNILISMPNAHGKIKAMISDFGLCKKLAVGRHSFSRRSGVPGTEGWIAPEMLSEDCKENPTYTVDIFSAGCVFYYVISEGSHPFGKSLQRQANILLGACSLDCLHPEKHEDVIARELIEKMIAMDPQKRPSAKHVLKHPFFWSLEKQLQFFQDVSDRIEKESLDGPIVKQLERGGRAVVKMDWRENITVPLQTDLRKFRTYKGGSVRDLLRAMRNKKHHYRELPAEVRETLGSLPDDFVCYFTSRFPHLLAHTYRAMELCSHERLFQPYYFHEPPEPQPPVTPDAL
Experimental: (§1) Human IRE1α kinase and RNase domain (residues 547–977) was subcloned into pLIB plasmid with a His tag and TEV cleavage site, and expressed using Bac-to-Bac expression system. The primers used are listed in Supplementary Table S3. The protein purification was performed following established procedures. Briefly, Sf9 cells were infected with baculovirus and incubated at 27 °C 110 rpm for 72 h. The cells were collected by centrifugation at 4000 × g for 15 min and the cell pellet was resuspended in lysis buffer (50 mM HEPES pH 7.5, 300 mM NaCl, 10% glycerol, 1 mM MgCl2, 1 mM TCEP, 5 mM imidazole), then supplemented with 1:10,000 benzonase (Sigma, E1014), 1 tablet/25 mL […]™ Protease Inhibitor Cocktail tablets (Sigma, S8830) and 1 mM PMSF before lysed by sonication at 4 °C. […] The protein elution was incubated with TEV protease to remove His tag at 4 °C overnight. Then the sample was diluted 1:6 in buffer (50 mM HEPES pH 7.5, 1 mM TCEP, 5% glycerol) and loaded onto a 5 mL pre-packaged Q HP anion exchange column (Cytiva, HiTrap Q HP) pre-equilibrated with QA buffer (50 mM HEPES pH 7.5, 50 mM NaCl, 1 mM TCEP, 5% glycerol). The unphosphorylated and phosphorylated protein was separated by eluting the protein with a very shallow gradient with 0-30% buffer QB (50 mM HEPES pH 7.5, 1 M NaCl, 1 mM TCEP, 5% glycerol) over 80 CV. Different peaks were collected separately and verified by LC-MS. The fully phosphorylated fraction was collected and further purified by size exclusion chromatography (Cytiva, HiLoad 16/600 Superdex 200 pg,) with SEC buffer (25 mM HEPES pH 7.5, 250 mM NaCl, 1 mM TCEP, 10% glycerol) and fractioned as monomeric peak. The rest protein fraction from the Q HP anion exchange column was incubated with Lambda protein phosphatase (New England BioLabs, P0753S) overnight at 4 °C, the dephosphorylation was confirmed by LC-MS. The unphosphorylated protein was further purified by size exclusion chromatography with the SEC buffer described above. The purified phosphorylated (p-IRE1α) and dephosphorylated (IRE1α) protein aliquots were stored at −80 °C for future usage.
The dual-labeled RNA substrate with a FAM at 5’ and the BHQ-1 at 3’ containing the XBP1 sequence (5′FAM-[…]-3′BHQ1) was purchased from Integrated DNA Technologies (IDT). The FRET-based IRE1α RNase activity assay was carried out in reaction buffer containing 20 mM HEPES pH 7.5, 50 mM KOAc, 1 mM MgOAc2, 1 mM DTT, 0.05% v/v TritonX-100, at a total reaction volume of 20 μL in a 384-well black plate (4514, Corning). For unphosphorylated IRE1α (IRE1α), a final concentration of 40 nM IRE1α protein and 100 nM RNA substrate was used. For phosphorylated IRE1 (p-IRE1α), a final concentration of 4 nM p-IRE1α protein and 200 nM RNA substrate was used. The indicated compound and IRE1α protein were incubated for 30 min at room temperature before the substrate was added to the reaction. The plate was then kinetically read over one hour at room temperature using a TECAN Spark plate reader. The measurement was carried out using the fluorescence top reading mode at the excitation wavelength of 485 nm and the emission wavelength of 535 nm with a 10 nm excitation and emission bandwidth. The linear part of the reaction curve was adopted and fitted with sample linear regression to obtain the slope, and the slope was adopted to reflect the reaction rate. The inhibition % was calculated by using the equation: inhibition% = 100 × (slope of DMSO control – slope of the sample)/(slope of DMSO control – slope of blank control), DMSO control: DMSO with protein and RNA substrate; Blank control: DMSO with RNA substrate. The IC50 values were calculated using the concentration-response model in GraphPad Prism 9. […]

[2] = target: T2, phosphorylated IRE1α (p-IRE1α) (Homo sapiens, UniProt O75460); experiment: FRET-based IRE1α RNase activity assay, phosphorylated IRE1α; format: biochemical; settings: for inhibition at 50 µM: FRET assay at 50 μM, read-out: p-IRE1α inhibition%
T2 construct: Human IRE1α kinase and RNase domain (residues 547–977) was subcloned into pLIB plasmid; His tag (with TEV cleavage site) (N, cleaved yes); made in house; host or cells: Sf9 insect cells, baculovirus (Bac-to-Bac)
T2 sequence (O75460 547-977): as above
Experimental: as §1
The dual-labeled RNA substrate with a FAM at 5’ and the BHQ-1 at 3’ containing the XBP1 sequence (5′FAM-[…]-3′BHQ1) was purchased from Integrated DNA Technologies (IDT). The FRET-based IRE1α RNase activity assay was carried out in reaction buffer containing 20 mM HEPES pH 7.5, 50 mM KOAc, 1 mM MgOAc2, 1 mM DTT, 0.05% v/v TritonX-100, at a total reaction volume of 20 μL in a 384-well black plate (4514, Corning). For unphosphorylated IRE1α (IRE1α), a final concentration of 40 nM IRE1α protein and 100 nM RNA substrate was used. For phosphorylated IRE1 (p-IRE1α), a final concentration of 4 nM p-IRE1α protein and 200 nM RNA substrate was used. The indicated compound and IRE1α protein were incubated for 30 min at room temperature before the substrate was added to the reaction. The plate was then kinetically read over one hour at room temperature using a TECAN Spark plate reader. The measurement was carried out using the fluorescence top reading mode at the excitation wavelength of 485 nm and the emission wavelength of 535 nm with a 10 nm excitation and emission bandwidth. The linear part of the reaction curve was adopted and fitted with sample linear regression to obtain the slope, and the slope was adopted to reflect the reaction rate. The inhibition % was calculated by using the equation: inhibition% = 100 × (slope of DMSO control – slope of the sample)/(slope of DMSO control – slope of blank control), DMSO control: DMSO with protein and RNA substrate; Blank control: DMSO with RNA substrate. The IC50 values were calculated using the concentration-response model in GraphPad Prism 9.

[3] = FRET assay, RNase activity, mean (± SEM)
[4] = FRET assay, RNase activity, mean (± SEM), read-out: IRE1α IC50
[5] = FRET assay, RNase activity, mean (± SEM), read-out: p-IRE1α IC50
[6] = FRET assay at 50 μM, mean (± SEM)
[7] = FRET assay, source data, unit from Fig. 3 / sheet Fig. 2b, read-out: IRE1a IC50, individual replicates (n1-n4)
[8] = FRET assay, source data, unit from Fig. 3, read-out: p-IRE1a IC50, individual replicates (n1-n4)
[9] = IRE1a, individual replicates (n1-n4), Supplementary Fig. 2b, 2c, read-out: IC50
[10] = IRE1a, mean, Supplementary Fig. 2b, 2c, read-out: IC50, mean
[11] = p-IRE1a, individual replicates (n1-n3), Supplementary Fig. 2b, 2c, read-out: IC50
[12] = p-IRE1a, mean, Supplementary Fig. 2b, 2c, read-out: IC50, mean

| SMILES | IC50 [1, 4] [nM] | IC50 [2, 5] | IC50 [1, 7] | IC50 [2, 8] | further results |
| --- | --- | --- | --- | --- | --- |
| COc1ccc2c(c1)c(CCC(=O)O)c(C)n2C(=O)N1CCOCC1 [IA77] | > 20000 | > 20000 nM | – | – | IRE1α IC50 [1, 3]: IC₅₀ not reached; p-IRE1α IC50 [2, 3]: IC₅₀ not reached |
| CCOC(=O)Cc1c(C)n(C(=O)c2ccc(Cl)cc2)c2ccc(OC)cc12 [cms05] | – | – | – | – | inhibition at 50 µM [1, 6]: < 30%; inhibition at 50 µM ([2]; mean (± SEM)): < 30% |
| COc1ccc2c(c1)c(CCC(=O)O)c(C)n2C(=O)N1CCCCC1 [IA89] | 69600 | > 20000 nM | 33400 nM and 89300 nM and 86000 nM | – | p-IRE1α IC50 [2, 3]: IC₅₀ not reached |
| Cc1c(CCC(=O)O)c2cc(C(C)C)ccc2n1C(=O)c1ccccc1 [IA110] | 240 | 200 nM | 230 nM and 198 nM and 292 nM | 205 nM (2×) and 190 nM | – |
| COc1ccc2[nH]c(C)c(CCC(=O)O)c2c1 [IA72] | > 20000 | > 20000 nM | – | – | IRE1α IC50 [1, 3]: IC₅₀ not reached; p-IRE1α IC50 [2, 3]: IC₅₀ not reached |
| COc1ccc2c(c1)c(CC(=O)N1CCOCC1)c(C)n2C(=O)c1ccc(Cl)cc1 [cms11] | – | – | – | – | inhibition at 50 µM [1, 6]: < 30%; inhibition at 50 µM ([2]; mean (± SEM)): < 30% |
| Cc1c(CCC(=O)O)c2cc(-c3ccoc3)ccc2n1C(=O)c1ccccc1 [IA138] | 1270 | 2030 nM | – | – | – |
| COc1ccc2c(c1)c(CCC(=O)O)c(C)n2C(=O)c1ccc(N(C)C)cc1 [IA70] | 320 | 730 nM | 473 nM and 234 nM and 244 nM | 505 nM and 1390 nM and 290 nM | – |
| COc1ccc2c(c1)c(CC(=O)OCC(=O)O)c(C)n2C(=O)c1ccc(Cl)cc1 [cms03] | – | – | – | – | inhibition at 50 µM [1, 6]: < 30%; inhibition at 50 µM ([2]; mean (± SEM)): < 30% |
| Cc1c(CCC(=O)O)c2cc(-c3cccc(C(=O)O)c3)ccc2n1C(=O)c1ccccc1 [IA149] | 1010 ± 270 | 8810 nM and 8820 nM | 895 nM and 824 nM and 1320 nM | 6800 nM and 11600 nM and 8050 nM | – |
| Cc1c(CCC(=O)O)c2cc(OC(F)(F)F)ccc2n1C(=O)c1ccccc1 [IA148] | 570 ± 360 | 940 nM | 524 nM and 238 nM and 957 nM | 986 nM and 798 nM and 1020 nM | reduction in IRE1α inhibition relative to IA64 ([1]; FRET IC50): ~ 19 fold |
| Cc1c(CCC(=O)O)c2cc(-c3cccc(N)c3)ccc2n1C(=O)c1ccccc1 [IA146] | 1210 ± 820 | 6650 nM | 2150 nM and 810 nM and 672 nM | 7280 nM and 8070 nM and 4590 nM | – |
| Cc1c(CCC(=O)O)c2cc(Cl)ccc2n1C(=O)c1cccs1 [IA60] | – | – | – | – | IC50 [1, 9]: 117 nM and 90.9 nM and 105 nM; IC50 [1, 10]: 100 nM; IC50 [2, 11]: 244 nM and 461 nM and 90.7 nM; IC50 [2, 12]: 270 nM |
| Cc1c(CCC(=O)O)c2cc(F)ccc2n1C(=O)c1ccccc1 [IA137] | 420 | 720 nM | 180 nM and 670 nM and 418 nM | 252 nM and 1120 nM and 788 nM | – |
| COC(=O)CCCc1c(C)n(C(=O)c2ccc(Cl)cc2)c2ccc(OC)cc12 [cms06] | – | – | – | – | inhibition at 50 µM [1, 6]: < 30%; inhibition at 50 µM ([2]; mean (± SEM)): < 30% |
| COc1ccc2c(c1)c(CCC(=O)O)c(C)n2C(=O)N(C)C [IA76] | > 20000 | > 20000 nM | – | – | IRE1α IC50 [1, 3]: IC₅₀ not reached; p-IRE1α IC50 [2, 3]: IC₅₀ not reached |
| COc1ccc2c(c1)c(CC(=O)O)c(C)n2C(=O)c1ccc(Cl)cc1 [Indomethacin, indomethacin, reference compound] | – | – | – | – | IRE1α inhibition% ([1]; FRET assay at 50 μM, mean (± SEM), 50 µM): < 30%; inhibition at 50 µM [1, 6]: ≤ 50%; inhibition at 50 µM ([2]; mean (± SEM)): < 30% |
| Cc1c(CCC(=O)O)c2cc(F)ccc2n1C(=O)c1cccc(C#N)c1 [IA47] | – | – | – | – | IC50 [1, 9]: 4700 nM and 983 nM and 3620 nM and 1970 nM; IC50 [1, 10]: 2820 nM; IC50 [2, 11]: 5260 nM and 7800 nM and 3640 nM; IC50 [2, 12]: 5570 nM |
| Cc1c(CCC(=O)O)c2ccccc2n1C(=O)c1cccs1 [IA42] | – | – | – | – | IC50 [1, 9]: 1960 nM and 3270 nM and 1050 nM; IC50 [1, 10]: 2090 nM; IC50 [2, 11]: 4450 nM and 1100 nM; IC50 [2, 12]: 2770 nM |
| Cc1c(CCC(=O)O)c2cc(F)ccc2n1C(=O)c1cccs1 [IA48] | – | – | – | – | IC50 [1, 9]: 542 nM and 383 nM and 121 nM; IC50 [1, 10]: 350 nM; IC50 [2, 11]: 1070 nM and 419 nM and 737 nM; IC50 [2, 12]: 740 nM |
| COc1ncc(-c2ccc3c(c2)c(CCC(=O)O)c(C)n3C(=O)c2ccccc2)c(OC)n1 [IA143] | 14100 | 39400 nM | 19600 nM and 14000 nM and 8760 nM | 40500 nM and 47100 nM and 30600 nM | – |
| COc1ccc(C(=O)n2c(C)c(CCC(=O)O)c3cc(OC)ccc32)cc1 [IA96] | 170 | 200 nM | 55.7 nM and 53.7 nM and 388 nM | 83 nM and 113 nM and 398 nM | – |
| Cc1noc(C)c1-c1ccc2c(c1)c(CCC(=O)O)c(C)n2C(=O)c1ccccc1 [IA142] | 1610 | 4680 nM | 2690 nM and 1100 nM and 1040 nM | 4810 nM and 5540 nM and 3680 nM | – |
